Where “and” joins values, the source holds several entries; their conditions need not be identical. Equal values may be shown once.
Tested on: West Nile virus Kunjin strain (KUNV)
Test: Plaque reduction assay in Vero cells after pre-incubating virus with peptide
Type: cell-based
Conditions: 10 µM peptide, KUNV 1 × 10^5 PFU exposed in DMEM for 1 h at room temperature, then Vero cells 1 h, overlay, 3 days, mean with SD of three independent experiments
Protocol: The antiviral activity of the synthesized peptides was evaluated using plaque reduction assays in Vero cells against West Nile virus Kunjin strain (KUNV, accession number AY274504). Vero cells (Vero E6, ATCC, CRL-1586, Manassas, VA, USA) were maintained in Dulbecco’s Modified Eagle Medium (DMEM, Thermo Fisher Scientific, Gibco, Göteborg, Sweden), supplemented with 10% fetal bovine serum (FBS, Thermo Fisher Scientific, Gibco, Göteborg, Sweden) and antibiotics (PEST, Thermo Fisher Scientific, Gibco, Göteborg, Sweden). For the antiviral assays, Vero cells were seeded in 24-well plates and allowed to reach confluency. The virus suspension (1 × 10^5 PFU) was pre-incubated with the peptides at 10 µM concentration or lower (in the combination experiment) for 1 h at room temperature. The peptide–virus mixtures were then added to the Vero cell monolayers and incubated for 1 h at 37 °C. Following incubation, the inoculum was removed, and cells were overlaid with Avicel 2.4% overlay media (FMC, Philadelphia, PA, USA). Plates were incubated for 3 days at 37 °C in a CO2 incubator. Post-incubation, cells were fixed with 100% methanol and stained with 1% crystal violet to visualize and count viral plaques. The reduction in plaque numbers compared to control wells (virus without peptide) was used to quantify antiviral activity.

Substance | KUNV (% Reduction) | KUNV (% Reduction) (listed as PLNC8 β1-20) | KUNV (% Reduction) (listed as PLNC8 α1-15)
α9-22: truncated peptide derived from PLNC8 α (SWGYYLGKKARWNL) | 7 ± 7% |  | 
VFHAYSARGVRNNYKSAVGPADWVISAVRGFIHG [PlnF, full-length peptide F of two-peptide plantaricin EF, reference compound] | 24 ± 6% |  | 
β7-20: truncated peptide derived from PLNC8 β (YTLGIKILWSAYKH) | 65 ± 20% |  | 
α16-22: truncated peptide derived from PLNC8 α (KKARWNL) | 3 ± 6% |  | 
SVPTSVYLLGIKILWKARKFGKVIEKSFNKGFYH [β18, modified peptide derived from PLNC8 β] | 12 ± 1% |  | 
β7-34: truncated peptide derived from PLNC8 β (YTLGIKILWSAYKHRKTIEKSFNKGFYH) | 52 ± 27% |  | 
GAWKNFWSSLRKGFYDGEAGRAIRR [PlnJ, full-length peptide J of two-peptide plantaricin JK, reference compound] | 30 ± 8% |  | 
α1-22: truncated peptide derived from PLNC8 α (DLTTKLWSSWGYYLGKKARWNL) | 28 ± 2% |  | 
β7-13: truncated peptide derived from PLNC8 β (YTLGIKI) | 8 ± 4% |  | 
β1-20: truncated peptide derived from PLNC8 β (SVPTSVYTLGIKILWSAYKH) | 92 ± 4% | over 90% | 
α16-29: truncated peptide derived from PLNC8 α (KKARWNLKHPYVQF) | 2 ± 0% |  | 
SVPTSVYTLGIKILWSARKFGKVIEKSFNKGFYH [β16, modified peptide derived from PLNC8 β] | 84 ± 8% |  | 
α23-29: truncated peptide derived from PLNC8 α (KHPYVQF) | 10 ± 4% |  | 
SVPTSVYTLGQKILRSARKFGKDIEKSFNKGFYH [β14, modified peptide derived from PLNC8 β] | 6 ± 8% |  | 
β1-13: truncated peptide derived from PLNC8 β (SVPTSVYTLGIKI) | 5 ± 7% |  | 
β1-6: truncated peptide derived from PLNC8 β (SVPTSV) | 21 ± 22% |  | 
SVPTSVYTLGIKILWSAYKHRKTIEKSFNKGFYH [PLNC8 β, full-length β peptide (34 residues) of two-peptide bacteriocin plantaricin NC8 αβ, reference compound] | 70 ± 12% |  | 

Substance | KUNV (% Reduction) | KUNV (% Reduction) (listed as PLNC8 β1-20) | KUNV (% Reduction) (listed as PLNC8 α1-15)
β4-17: truncated peptide derived from PLNC8 β (TSVYTLGIKILWSA) | 56 ± 32% |  | 
β28-34: truncated peptide derived from PLNC8 β (FNKGFYH) | 11 ± 15% |  | 
β10-17: truncated peptide derived from PLNC8 β (GIKILWSA) | 0 ± 0% |  | 
SVPTSVYTLGQKILRSARKFGKTIEKSFNKGFYH [β13, modified peptide derived from PLNC8 β] | 8 ± 11% |  | 
AYSLQMGATAIKQVKKLFKKWGW [PlnA, full-length plantaricin A, peptide pheromone of Lactobacillus plantarum C11, reference compound] | 27 ± 9% |  | 
α1-15: truncated peptide derived from PLNC8 α (DLTTKLWSSWGYYLG) | 91 ± 2% |  | over 90%
β21-34: truncated peptide derived from PLNC8 β (RKTIEKSFNKGFYH) | 0 ± 0% |  | 
DLTTKLWSSWGYYLGKKARWNLKHPYVQF [PLNC8 α, full-length α peptide (29 amino acids) of two-peptide bacteriocin plantaricin NC8 αβ, reference compound] | ~ 35% and 35 ± 2% |  | 
α1-8: truncated peptide derived from PLNC8 α (DLTTKLWS) | 20 ± 18% |  | 
FNRGGYNFGKSVRHVVDAIGSVAGIRGILKSIR [PlnE, full-length peptide E of two-peptide plantaricin EF, reference compound] | 24 ± 6% |  | 
α9-29: truncated peptide derived from PLNC8 α (SWGYYLGKKARWNLKHPYVQF) | 10 ± 6% |  | 
SVPTSVYTLGIKILRSARKFGKVIEKSFNKGFYH [β15, modified peptide derived from PLNC8 β] | 9 ± 13% |  | 
β14-34: truncated peptide derived from PLNC8 β (LWSAYKHRKTIEKSFNKGFYH) | 5 ± 0.2% |  | 
SVPTSVYLLGIKILWSARKFGKVIEKSFNKGFYH [β17, modified peptide derived from PLNC8 β] | 14 ± 12% |  | 
β14-20: truncated peptide derived from PLNC8 β (LWSAYKH) | 3 ± 4% |  | 
α9-15: truncated peptide derived from PLNC8 α (SWGYYLG) | 16 ± 7% |  | 
RRSRKNGIGYAIGYAFGAVERAVLGGSRDYNK [PlnK, full-length peptide K of two-peptide plantaricin JK, reference compound] | 18 ± 9% |  | 

Source: article PMC11817140, “Characterization of Novel Plantaricin-Derived Antiviral Peptides Against Flaviviruses” (International Journal of Molecular Sciences, 2025)
